Reference: patent US20230398130A1, “METHODS AND COMPOSITIONS FOR DIFFERENTIATING STEM CELLS” (Massachusetts Institute of Technology, priority 2020, published 2023)
Where two headings read alike, the source gives them in different places.

Experiments:
small intestine = tested on: small intestine; set-up: cycling cell number: dose or concentration left out as unconfirmed
Text: FIG. 20—KPT-330 treatment in vivo.
FIG. 21A-21C—Analysis of samples collected from the mice of FIG. 20. A. Western blot for lysozyme of samples collected from the small intestine proximal region. B. Graph showing band intensity of the western blot in (A). C. Histological analysis of the distal small intestine from control and treated mice using immunohistochemistry for lysozyme.
FIG. 22—Analysis of samples collected from the mice of FIG. 20. […] Graphs showing Paneth cell, Goblet cell, and cycling cell numbers in the proximal and distal small intestines under each treatment condition using markers for each cell type.

Paneth cells = assay: Immunofluorescent imaging of organoids: LYZ+ cells per organoid area; assay type: cell-based, murine
Description: Immunofluorescent imaging. For immunofluorescence staining of organoids, intestinal organoids in Matrigel were fixed with 4% paraformaldehyde, then transferred to centrifuge tube. After washing with PBS, the isolated organoids were permeabilized with 1% Triton X followed by incubation with blocking buffer (1% BSA+3% Donkey Serum+0.2% Triton X in PBS) at RT. The organoids were then stained with primary antibodies and fluorescent dye-labeled secondary antibodies as well as with DAPI. Slides were covered with […]® Mounting Media (VECTOR). The following primary and secondary antibodies were used for the staining: rabbit anti-Lysozyme (1:1000, Thermo Fisher Scientific), rat anti-E-cadherin (1:1000, Thermo Fisher Scientific), Alexa Fluor 488 and 568 secondary antibodies (1:1000, Invitrogen). Images were acquired with a confocal laser scanning microscope (Nikon Eclipse 90i). For the analysis of Lysozyme+ cells per organoid area, the number of counted Lysozyme+ cells were normalized to measured organoid surface area. Image J was used for the data analysis.

intestinal organoids = assay: Population RNA-sequencing of organoids; assay type: cell-based, murine
Description: Population RNA-sequencing. Population RNA-seq was performed using a derivative of the Smart-Seq2 protocol for single cells. In brief, organoid media was aspirated and RLT+BME (Qiagen) was added to each well, and plate shaken for 30 minutes to fully lyse. Lysate was aliquoted into 4 identical fractions and stored at −80° C. until reverse transcription. RNA lysate was thawed and cleaned with a 2.2×SPRI ratio using Agencourt RNAClean XP beads (Beckman Coulter, A63987). RNA-seq was performed on a bulk population of […] using Smart-Seq2 chemistry, starting with a 2.2×SPRI ratio cleanup. After oligo-dT priming, Maxima H Minus Reverse Transcriptase (ThermoFisher EP0753) was used to synthesize cDNA with an elongation step at 52° C. before PCR amplification (15 cycles for tissue, 18 cycles for sorted basal cells) using KAPA HiFi PCR Mastermix (Kapa Biosystems KK2602). Sequencing libraries were prepared using the Nextera XT DNA tagmentation kit (Illumina FC-131-1096) with 250 pg input for each sample. Libraries were pooled post-Nextera and cleaned using Agencourt AMPure SPRI beads with successive 0.7× and 0.8× ratio SPRIs and sequenced with an Illumina 75 Cycle NextSeq500/550v2 kit (Illumina FC-404-2005) with loading density at 2.2 pM, with paired end 35 cycle read structure. Samples were sequenced at an average read depth of 8.44 million reads per sample and a total of 96 samples.
Organoid samples were aligned to the Mm10 genome and transcriptome using STAR and RSEM. […] For module scoring with the in vivo Paneth and enteroendocrine cell-defining genes, Applicants used previously published gene sets and computed persample module scores through the Seurat package.

ISC-enriched organoids = assay: Secondary (validation) screen, 384-well 2.5-D, ENR+CD 6 days, n=8 wells, vs ENR+CD+DMSO control: basal lysozyme secretion (LYZ.NS); assay type: cell-based, murine

O=C(/C=C\n1cnc(-c2cc(C(F)(F)F)cc(C(F)(F)F)c2)n1)NNc1cnccn1 [KPT-330]
Paneth cell number (small intestine; distal small intestines, high dose): the high dose decreased Paneth cells | cycling cell number (small intestine; distal small intestines, low dose): significant increase in cycling cell number | toxicity to mice (small intestine; mouse, in vivo): toxic to mice | Paneth cell number (small intestine; proximal small intestines): no significant shift in Paneth cell number | goblet cell numbers (small intestine; proximal/distal small intestines): no significant shift in goblet cell numbers, but the trend was an increase | LYZ+ Paneth cell number (IF imaging) (Paneth cells; ENR with or without 160 nM KPT-330, 3 days): pro-Paneth differentiation effect is also observed | LYZ+ Paneth cell number (IF imaging) (Paneth cells; ENR+CD with 160 nM KPT-330, 6 days): an increase in Paneth cell number | secretory cell identity (Paneth, goblet, EEC) from bulk transcripts (intestinal organoids; ENR+CV, ENR+CD or ENR organoids): increase secretory cells (Paneth, goblet, and EEC) | number of differentially expressed genes (intestinal organoids; hits compared, ENR and ENR+CD): the most differentially expressed genes | Z.LYZ.NS (ISC-enriched organoids; Dose 0.02 uM): −0.038 | repSSMD.LYZ.NS (ISC-enriched organoids; Dose 0.02 uM): −0.050 | Z.LYZ.NS (ISC-enriched organoids; Dose 0.04 uM): −0.318 | repSSMD.LYZ.NS (ISC-enriched organoids; Dose 0.04 uM): −0.506 | Z.LYZ.NS (ISC-enriched organoids; dose 0.08 uM): 1.132 | repSSMD.LYZ.NS (ISC-enriched organoids; dose 0.08 uM): 1.621 | increase in LYZ.NS (basal LYZ secretion) relative to ENR+CD control (ISC-enriched organoids; validated doses, secondary screen): 50-75%
